{
  "source": "patent US8410085B2",
  "about": "“Phospholipid compositions and uses thereof” (Baylor College of Medicine, priority 2007, dated 2013)",
  "key": {"PPARα": {"target": "PPARα (Homo sapiens, UniProt Q07869)", "sequence (Q07869 whole entry, species assumed)": "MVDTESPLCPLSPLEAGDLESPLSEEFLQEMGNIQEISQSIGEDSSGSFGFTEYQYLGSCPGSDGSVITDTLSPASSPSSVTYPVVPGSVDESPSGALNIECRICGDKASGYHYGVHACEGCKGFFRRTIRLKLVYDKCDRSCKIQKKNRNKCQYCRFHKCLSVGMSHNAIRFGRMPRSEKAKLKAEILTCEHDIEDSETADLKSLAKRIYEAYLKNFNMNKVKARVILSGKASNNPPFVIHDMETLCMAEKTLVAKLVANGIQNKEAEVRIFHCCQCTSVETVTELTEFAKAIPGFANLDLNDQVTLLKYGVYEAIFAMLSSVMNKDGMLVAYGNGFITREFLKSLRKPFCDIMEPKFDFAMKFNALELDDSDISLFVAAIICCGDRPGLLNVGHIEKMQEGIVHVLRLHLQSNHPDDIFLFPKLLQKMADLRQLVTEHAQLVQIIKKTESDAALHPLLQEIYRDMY", "test": "nuclear receptor cotransfection (RE-tk-luc), HeLa cells", "details": "100 μM"}, "LRH-1 [1]": {"target": "T1, LRH-1 (Homo sapiens, UniProt O00482)", "T1 sequence (O00482 whole entry)": "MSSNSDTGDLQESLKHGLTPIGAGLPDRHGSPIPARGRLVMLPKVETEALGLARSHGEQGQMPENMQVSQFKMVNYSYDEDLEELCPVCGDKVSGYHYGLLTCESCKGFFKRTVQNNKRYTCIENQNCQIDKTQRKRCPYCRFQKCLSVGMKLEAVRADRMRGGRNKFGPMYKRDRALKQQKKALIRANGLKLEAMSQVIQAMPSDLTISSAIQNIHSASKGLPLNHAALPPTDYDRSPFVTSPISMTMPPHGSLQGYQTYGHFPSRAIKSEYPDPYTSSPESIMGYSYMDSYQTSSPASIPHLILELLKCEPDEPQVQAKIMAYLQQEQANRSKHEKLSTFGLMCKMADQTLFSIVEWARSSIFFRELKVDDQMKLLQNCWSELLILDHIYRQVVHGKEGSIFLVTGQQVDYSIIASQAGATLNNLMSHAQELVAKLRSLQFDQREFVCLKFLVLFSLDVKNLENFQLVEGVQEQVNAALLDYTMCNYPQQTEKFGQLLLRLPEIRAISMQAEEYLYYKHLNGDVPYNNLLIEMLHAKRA", "details": "CV-1 and HEK293T cells, compared with HeLa"}, "[2]": {"test_system": "hepatic expression of Cyp7A1, Cyp8B1, mSR-BI, SHP", "test": "hepatic gene expression (Q-PCR) in wild type mice after oral gavage", "assay_type": "in vivo, mouse", "details": "100 mg/kg oral, five times over three days", "description": "(§1) Total liver RNA was isolated and prepared for the cDNA. […] Total liver RNA was isolated and prepared for cDNA."}, "[3]": {"target": "hLRH-1 LBD / SRC-3 receptor interaction domain (Homo sapiens, UniProt O00482)", "sequence (O00482 300-539 limits assumed)": "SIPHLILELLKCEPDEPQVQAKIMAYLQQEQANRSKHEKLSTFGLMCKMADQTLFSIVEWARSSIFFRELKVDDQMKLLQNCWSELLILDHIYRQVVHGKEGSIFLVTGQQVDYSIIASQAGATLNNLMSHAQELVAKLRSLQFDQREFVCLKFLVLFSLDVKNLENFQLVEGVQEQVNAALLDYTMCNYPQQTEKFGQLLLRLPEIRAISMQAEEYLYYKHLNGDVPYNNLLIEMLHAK", "sequence (Q9Y6Q9 whole entry partner, the tested form may be a part)": "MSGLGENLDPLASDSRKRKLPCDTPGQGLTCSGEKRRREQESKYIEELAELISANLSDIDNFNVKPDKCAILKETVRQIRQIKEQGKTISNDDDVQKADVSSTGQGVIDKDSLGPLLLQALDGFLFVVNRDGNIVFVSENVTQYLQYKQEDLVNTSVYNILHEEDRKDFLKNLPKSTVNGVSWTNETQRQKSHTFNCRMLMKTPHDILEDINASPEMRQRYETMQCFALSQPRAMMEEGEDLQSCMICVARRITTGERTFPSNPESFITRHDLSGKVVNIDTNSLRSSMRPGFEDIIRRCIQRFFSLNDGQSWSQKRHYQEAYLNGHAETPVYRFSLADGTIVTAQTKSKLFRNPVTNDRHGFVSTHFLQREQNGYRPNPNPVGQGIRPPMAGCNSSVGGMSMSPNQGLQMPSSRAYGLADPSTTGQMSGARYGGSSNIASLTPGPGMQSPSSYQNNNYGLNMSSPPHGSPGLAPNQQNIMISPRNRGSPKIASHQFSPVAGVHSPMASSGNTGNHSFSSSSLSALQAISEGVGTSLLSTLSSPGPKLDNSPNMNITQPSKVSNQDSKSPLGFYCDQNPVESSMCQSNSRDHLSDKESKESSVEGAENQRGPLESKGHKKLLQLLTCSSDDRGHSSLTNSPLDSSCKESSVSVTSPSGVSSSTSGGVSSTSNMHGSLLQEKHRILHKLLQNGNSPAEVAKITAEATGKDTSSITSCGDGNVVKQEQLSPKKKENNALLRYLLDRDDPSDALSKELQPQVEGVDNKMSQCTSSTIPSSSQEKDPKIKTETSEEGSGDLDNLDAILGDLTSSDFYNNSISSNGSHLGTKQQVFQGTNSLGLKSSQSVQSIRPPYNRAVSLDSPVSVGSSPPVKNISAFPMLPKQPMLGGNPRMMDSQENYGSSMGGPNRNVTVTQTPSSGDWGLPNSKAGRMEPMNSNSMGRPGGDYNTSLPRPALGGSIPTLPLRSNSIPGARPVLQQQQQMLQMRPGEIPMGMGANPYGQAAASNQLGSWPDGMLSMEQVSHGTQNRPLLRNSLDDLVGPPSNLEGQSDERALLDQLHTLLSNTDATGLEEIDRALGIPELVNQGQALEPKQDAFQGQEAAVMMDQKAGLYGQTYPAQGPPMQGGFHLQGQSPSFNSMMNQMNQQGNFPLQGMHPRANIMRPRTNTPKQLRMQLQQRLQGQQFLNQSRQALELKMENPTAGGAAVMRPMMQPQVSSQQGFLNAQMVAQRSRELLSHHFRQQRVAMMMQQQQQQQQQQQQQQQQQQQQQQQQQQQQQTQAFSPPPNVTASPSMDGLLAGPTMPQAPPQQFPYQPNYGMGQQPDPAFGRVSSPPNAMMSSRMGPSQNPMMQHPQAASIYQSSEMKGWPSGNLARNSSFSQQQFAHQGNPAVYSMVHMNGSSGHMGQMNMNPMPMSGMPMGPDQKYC", "test": "mammalian two-hybrid assay, VP16-hLRH1 LBD with Gal4-SRC3 RID in HeLa cells"}, "LXRα": {"target": "LXRα (Homo sapiens, UniProt Q13133)", "sequence (Q13133 whole entry)": "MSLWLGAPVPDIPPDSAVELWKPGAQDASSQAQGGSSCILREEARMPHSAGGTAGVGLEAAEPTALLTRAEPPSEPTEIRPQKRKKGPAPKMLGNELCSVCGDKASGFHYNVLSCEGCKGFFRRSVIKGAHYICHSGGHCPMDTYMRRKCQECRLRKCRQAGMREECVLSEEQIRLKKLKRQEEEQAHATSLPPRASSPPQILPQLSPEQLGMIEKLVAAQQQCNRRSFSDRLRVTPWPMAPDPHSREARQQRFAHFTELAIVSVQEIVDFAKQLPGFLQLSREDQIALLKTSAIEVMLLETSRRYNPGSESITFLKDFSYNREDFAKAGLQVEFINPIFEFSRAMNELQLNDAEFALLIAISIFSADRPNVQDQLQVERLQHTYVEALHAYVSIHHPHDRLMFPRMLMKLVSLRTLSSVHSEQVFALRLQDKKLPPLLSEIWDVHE", "test": "nuclear receptor cotransfection (RE-tk-luc), HeLa cells", "details": "100 μM"}, "RARβ": {"target": "RARβ (Homo sapiens, UniProt P10826)", "test": "nuclear receptor cotransfection (RE-tk-luc), HeLa cells", "details": "100 μM"}, "LRH-1 [4]": {"target": "T1, LRH-1", "test": "human LRH-1 transactivation, HeLa cotransfection with LRH-1/SF-1 response element luciferase reporter", "assay_type": "cell-based", "design": "expressed in transfected cells; host or cells: HeLa (A1, A3)", "details": "HeLa cells", "description": "Controls (vector only and no lipid) are as indicated. […] Cells were treated with 100 μM of the indicated PCs and luciferase expression (RLU, relative light units) was normalized using an internal β-galactosidase control. vec, empty vector; −, ethanol solvent control.\nHeLa cells were transfected with an hLRH-1 expression vector along with mSHP1080-Luc reporter. […] Oct4-PPmut Luc is identical to Oct4-PP Luc except for the insertion of point mutations in the DR0 element. […] HeLa cells were cotransfected with various nuclear receptors and the reporter plasmid (RE-tk-luc). […] Data are expressed for each reporter as fold activation of normalized luciferase activity relative to veh-treated cells.\nA number of different phosphatidylcholine (PC) species were screened for effects on human LRH-1 transactivation in HeLa cell cotransfections with a synthetic luciferase reporter containing multiple copies of an LRH-1/SF-1 response element."}, "LRH-1 target Cyp8B1": {"test_system": "LRH-1 target Cyp8B1", "test": "hCYP8B1 expression by Q-PCR in C3A HepG2 cells"}, "SF-1": {"target": "SF-1 (Homo sapiens, UniProt Q13285)", "sequence (Q13285 whole entry)": "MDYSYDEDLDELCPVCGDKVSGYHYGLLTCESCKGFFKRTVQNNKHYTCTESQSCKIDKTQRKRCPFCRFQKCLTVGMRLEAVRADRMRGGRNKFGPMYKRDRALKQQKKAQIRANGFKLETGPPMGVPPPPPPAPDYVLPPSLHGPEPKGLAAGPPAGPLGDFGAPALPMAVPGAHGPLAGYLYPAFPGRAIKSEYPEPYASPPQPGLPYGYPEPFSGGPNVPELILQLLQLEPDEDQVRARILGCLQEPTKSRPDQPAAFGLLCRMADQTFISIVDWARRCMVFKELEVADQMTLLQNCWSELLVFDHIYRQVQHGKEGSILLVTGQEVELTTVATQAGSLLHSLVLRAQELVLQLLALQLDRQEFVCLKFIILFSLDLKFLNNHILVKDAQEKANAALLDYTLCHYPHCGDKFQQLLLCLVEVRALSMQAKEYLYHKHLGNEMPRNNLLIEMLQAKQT", "test": "SF-1 transactivation, reporter cotransfection in HeLa cells", "details": "100 μM"}, "wild type male mice": {"test_system": "wild type male mice", "test": "bile acids, serum glucose and NEFA in wild type mice after oral gavage", "assay_type": "in vivo, mouse", "details": "100 mg/kg oral"}, "PPARδ": {"target": "PPARδ (Homo sapiens, UniProt Q03181)", "test": "nuclear receptor cotransfection (RE-tk-luc), HeLa cells", "details": "100 μM"}, "human PXR": {"target": "human PXR (Homo sapiens, UniProt O75469)", "test": "nuclear receptor cotransfection (RE-tk-luc), HeLa cells", "details": "100 μM"}, "LRH-1 [5]": {"target": "T1, LRH-1", "test": "Oct4 proximal promoter (Oct4-PP Luc) activation by hLRH-1 in COS-1 cells"}, "TRβ": {"target": "TRβ (Homo sapiens, UniProt P10828)", "test": "nuclear receptor cotransfection (RE-tk-luc), HeLa cells", "details": "100 μM"}, "LRH-1 [6]": {"target": "T1, LRH-1", "test": "LRH-1 Luc reporter in C3A HepG2 cells (endogenous hLRH-1)", "details": "C3A/HepG2 cells or cells with non-target control siRNAs"}, "GST-hLRH-1 LBD / SRC-3": {"target": "GST-hLRH-1 LBD / SRC-3 (Homo sapiens, UniProt O00482)", "sequence (O00482 300-539 limits assumed)": "as the sequence (O00482 300-539 limits assumed) above", "sequence (Q9Y6Q9 whole entry partner, the tested form may be a part)": "as the sequence (Q9Y6Q9 whole entry partner, the tested form may be a part) above", "test": "GST pulldown, GST-hLRH-1 LBD with in vitro translated 35S-labeled SRC-3"}, "mouse LRH-1": {"target": "mouse LRH-1 (Mus musculus, UniProt P45448)", "test": "mouse LRH-1 transactivation, reporter cotransfection"}, "RXRα": {"target": "RXRα (Homo sapiens, UniProt P19793)", "test": "nuclear receptor cotransfection (RE-tk-luc), HeLa cells", "details": "100 μM"}, "PPARγ": {"target": "PPARγ (Homo sapiens, UniProt P37231)", "test": "nuclear receptor cotransfection (RE-tk-luc), HeLa cells", "details": "100 μM"}, "ERα": {"target": "ERα (Homo sapiens, UniProt P03372)", "test": "nuclear receptor cotransfection (RE-tk-luc), HeLa cells", "details": "100 μM"}, "FXR": {"target": "FXR (Homo sapiens, UniProt Q96RI1)", "sequence (Q96RI1 whole entry, species assumed)": "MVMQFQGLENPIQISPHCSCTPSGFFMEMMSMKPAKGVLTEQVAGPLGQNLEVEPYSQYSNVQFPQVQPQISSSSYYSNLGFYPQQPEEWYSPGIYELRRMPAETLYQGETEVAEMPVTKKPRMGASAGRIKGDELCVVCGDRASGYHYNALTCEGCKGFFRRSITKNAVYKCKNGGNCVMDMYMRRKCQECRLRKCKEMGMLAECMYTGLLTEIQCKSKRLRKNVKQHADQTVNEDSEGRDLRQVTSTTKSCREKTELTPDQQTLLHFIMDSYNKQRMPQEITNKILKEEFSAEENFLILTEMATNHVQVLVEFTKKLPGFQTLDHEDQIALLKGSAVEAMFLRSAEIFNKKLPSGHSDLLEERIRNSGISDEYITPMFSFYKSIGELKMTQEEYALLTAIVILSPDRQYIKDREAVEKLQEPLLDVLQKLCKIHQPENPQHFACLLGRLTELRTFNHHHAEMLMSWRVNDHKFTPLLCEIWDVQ", "test": "nuclear receptor cotransfection (RE-tk-luc), HeLa cells", "details": "100 μM"}, "mouse CAR": {"target": "mouse CAR (Mus musculus, UniProt O35627)", "sequence (O35627 whole entry)": "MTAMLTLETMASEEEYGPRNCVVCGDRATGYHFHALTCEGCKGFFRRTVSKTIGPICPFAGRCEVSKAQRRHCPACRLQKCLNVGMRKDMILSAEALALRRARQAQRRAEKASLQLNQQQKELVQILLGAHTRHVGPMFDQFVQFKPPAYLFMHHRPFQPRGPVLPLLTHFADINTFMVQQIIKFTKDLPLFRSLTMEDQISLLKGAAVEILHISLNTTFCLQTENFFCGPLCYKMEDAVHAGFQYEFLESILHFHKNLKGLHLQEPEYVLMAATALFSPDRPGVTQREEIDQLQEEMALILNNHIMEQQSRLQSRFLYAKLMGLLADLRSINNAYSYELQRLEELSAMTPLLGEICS", "test": "nuclear receptor cotransfection (RE-tk-luc), HeLa cells", "details": "100 μM"}, "LRH-1 [7]": {"target": "T1, LRH-1", "test": "mouse SHP promoter (mSHP1080-Luc) activation by hLRH-1 in HeLa cells", "details": "100 μM"}, "human CAR": {"target": "human CAR (Homo sapiens, UniProt Q14994)", "sequence (Q14994 whole entry)": "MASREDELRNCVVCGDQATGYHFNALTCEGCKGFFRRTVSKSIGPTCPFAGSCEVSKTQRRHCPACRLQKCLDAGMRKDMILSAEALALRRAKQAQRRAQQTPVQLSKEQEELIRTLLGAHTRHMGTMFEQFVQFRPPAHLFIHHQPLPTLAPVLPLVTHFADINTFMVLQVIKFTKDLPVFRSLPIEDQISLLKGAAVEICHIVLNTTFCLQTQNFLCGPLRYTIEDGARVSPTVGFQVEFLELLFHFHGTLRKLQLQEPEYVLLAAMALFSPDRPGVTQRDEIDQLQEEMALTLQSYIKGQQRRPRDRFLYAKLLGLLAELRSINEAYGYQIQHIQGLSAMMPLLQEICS", "test": "nuclear receptor cotransfection (RE-tk-luc), HeLa cells", "details": "100 μM"}, "LRH-1 [8]": {"test_system": "LRH-1", "test": "hepatic gene expression in LRH-1 f/f mice infected with Ad-Cre", "assay_type": "in vivo, mouse", "details": "100 mg/kg oral, 100 mg/kg", "description": "as §1"}},
  "note": "Several values for one entry are separate records, joined by “and”; a condition that tells them apart may be missing. Equal values may be shown once. Entries after “also recorded” stand apart in the source; their conditions may differ.",
  "data": [
    {"smiles": "CCCCCCCCCCC(=O)OCC(COP(=O)([O-])OCC[N+](C)(C)C)OC(=O)CCCCCCCCCC", "note": "(stereo not drawn) [DUPC, diundecanoylphosphatidylcholine]", "values": [
      {"measurement": "activation or inhibition of PPARα", "setting": "PPARα", "result": "did not activate or inhibit"},
      {"measurement": "LRH-1 transactivation response", "setting": "LRH-1 [1]", "result": "similar, but lesser responses"},
      {"measurement": "hepatic expression of Cyp7A1", "setting": "[2]", "result": "significantly induced"},
      {"measurement": "hepatic expression of Cyp8B1", "setting": "[2]", "result": "significantly induced"},
      {"measurement": "hepatic expression of SHP", "setting": "[2]", "result": "repressed"},
      {"measurement": "hepatic expression of mSR-BI", "setting": "[2]", "result": "significantly induced"},
      {"measurement": "interaction of hLRH-1 LBD with SRC-3 RID", "setting": "[3]", "result": "stimulated"},
      {"measurement": "activation or inhibition of LXRα", "setting": "LXRα", "result": "did not activate or inhibit"},
      {"measurement": "activation or inhibition of RARβ", "setting": "RARβ", "result": "did not activate or inhibit"},
      {"measurement": "LRH-1 transactivation (luciferase)", "setting": "LRH-1 [4]; 100 μM", "result": "responses"},
      {"measurement": "EC50", "setting": "LRH-1 [4]; reporter gene, dose response 1-250 μM, read-out: EC50 for activation of hLRH-1", "result": "~60 µM and 57 µM"},
      {"measurement": "expression of Cyp8B1", "setting": "LRH-1 target Cyp8B1; C3A/HepG2 cells or cells with non-target control siRNAs", "result": "modestly but significantly induced"},
      {"measurement": "Cyp8B1 response when LRH-1 expression is knocked down", "setting": "LRH-1 target Cyp8B1; siRNA hLRH-1", "result": "lost"},
      {"measurement": "SF-1 activation", "setting": "SF-1", "result": "activate SF-1"},
      {"measurement": "liver bile acids", "setting": "wild type male mice", "result": "somewhat lower"},
      {"measurement": "serum bile acid levels", "setting": "wild type male mice", "result": "substantially elevated"},
      {"measurement": "serum free fatty acids", "setting": "wild type male mice", "result": "decreased levels"},
      {"measurement": "serum glucose levels", "setting": "wild type male mice", "result": "decreased serum glucose levels"},
      {"measurement": "total bile acid pool", "setting": "wild type male mice", "result": "significant increase"},
      {"measurement": "activation or inhibition of PPARδ", "setting": "PPARδ", "result": "did not activate or inhibit"},
      {"measurement": "activation or inhibition of human PXR", "setting": "human PXR", "result": "did not activate or inhibit"},
      {"measurement": "response with the Oct4 promoter", "setting": "LRH-1 [5]; COS-1 cells, Oct4-PP Luc", "result": "induced a similar response"},
      {"measurement": "activation of Oct4-PPmut Luc", "setting": "LRH-1 [5]; point mutations in the DR0 element", "result": "eliminates activation"},
      {"measurement": "activation or inhibition of TRβ", "setting": "TRβ", "result": "did not activate or inhibit"},
      {"measurement": "LRH-1 Luc luciferase activity", "setting": "LRH-1 [6]", "result": "increased luciferase"},
      {"measurement": "interaction of GST-LRH1 with SRC-3", "setting": "GST-hLRH-1 LBD / SRC-3; GST pulldown, 100 μM", "result": "further increased"},
      {"measurement": "increase of SRC-3 binding", "setting": "GST-hLRH-1 LBD / SRC-3; PhosphorImager quantitation", "result": "approximately 3 fold"},
      {"measurement": "mouse LRH-1 response versus human LRH-1", "setting": "mouse LRH-1", "result": "essentially equivalent responses"},
      {"measurement": "activation or inhibition of RXRα", "setting": "RXRα", "result": "did not activate or inhibit"},
      {"measurement": "activation or inhibition of PPARγ", "setting": "PPARγ", "result": "did not activate or inhibit"},
      {"measurement": "activation or inhibition of ERα", "setting": "ERα", "result": "did not activate or inhibit"},
      {"measurement": "activation or inhibition of FXR", "setting": "FXR", "result": "did not activate or inhibit"},
      {"measurement": "activation or inhibition of mouse CAR", "setting": "mouse CAR", "result": "did not activate or inhibit"},
      {"measurement": "increase of LRH-1 transactivation of the native mouse SHP promoter", "setting": "LRH-1 [7]", "result": "approximately 2 fold"},
      {"measurement": "activation or inhibition of human CAR", "setting": "human CAR", "result": "did not activate or inhibit"},
      {"measurement": "hepatic gene expression response when LRH-1 gene removed by Cre", "setting": "LRH-1 [8]", "result": "not observed; also recorded: completely absent"}
    ]}
  ]
}
